# US11174252B2, “Heterocyclic compounds as kinase inhibitors” (priority 2018, dated 2021)
# Where two headings read alike, the source gives them in different places.
# Experiments:
# CDK2 (cyclin A) = CDK2 (cyclin A) (Homo sapiens (Human), UniProt P24941); assay: Z'-LYTE kinase assay; type: biochemical
# Method: IC50 values of compounds against CDK2 (cyclin A) were determined by Z'-LYTETM. […] The following equations were used for Z'-LYTETM Screening Assay Data Analysis.
# DU4475 = assay: Cancer cell proliferation assay, single agent; type: cell-based; conditions: Homo sapiens
# CDK1 (cyclin B) = CDK1 (cyclin B) (Homo sapiens (Human), UniProt P06493); assay: Z'-LYTE kinase assay; type: biochemical
# CDK1 (cyclin B), sequence (P06493 whole entry): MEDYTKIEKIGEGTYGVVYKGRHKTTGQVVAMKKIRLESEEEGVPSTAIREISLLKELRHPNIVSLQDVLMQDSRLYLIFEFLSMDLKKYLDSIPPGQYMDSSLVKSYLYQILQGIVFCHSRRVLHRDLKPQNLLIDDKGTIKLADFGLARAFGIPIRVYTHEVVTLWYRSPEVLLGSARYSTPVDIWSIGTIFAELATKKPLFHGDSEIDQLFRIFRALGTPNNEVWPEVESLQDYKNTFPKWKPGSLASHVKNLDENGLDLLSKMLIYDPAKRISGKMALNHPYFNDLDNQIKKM
# CDK1 (cyclin B), sequence (P14635 whole entry partner): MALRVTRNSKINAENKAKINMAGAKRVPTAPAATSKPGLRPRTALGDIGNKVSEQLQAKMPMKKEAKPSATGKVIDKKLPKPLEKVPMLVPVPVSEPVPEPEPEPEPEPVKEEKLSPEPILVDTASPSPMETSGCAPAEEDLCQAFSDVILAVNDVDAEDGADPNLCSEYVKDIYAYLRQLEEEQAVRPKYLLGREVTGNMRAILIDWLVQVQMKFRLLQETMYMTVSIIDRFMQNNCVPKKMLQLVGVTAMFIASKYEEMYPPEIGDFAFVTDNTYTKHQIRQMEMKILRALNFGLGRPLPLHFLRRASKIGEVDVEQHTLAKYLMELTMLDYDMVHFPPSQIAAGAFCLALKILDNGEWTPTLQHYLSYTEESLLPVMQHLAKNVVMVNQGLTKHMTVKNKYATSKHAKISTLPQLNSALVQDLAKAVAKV
# Text: The following equations were used for Z′-LYTE™ Screening Assay Data Analysis.
# CDK6 = CDK6 (Homo sapiens (Human), UniProt Q00534); assay: biochemical; type: biochemical
# CDK9 (cyclin K) = CDK9 (cyclin K) (Homo sapiens (Human), UniProt P50750); assay: LanthaScreen Eu Kinase Binding Assay; conditions: read-out: CDK9/K IC50
# CDK9 (cyclin K), sequence (P50750 whole entry): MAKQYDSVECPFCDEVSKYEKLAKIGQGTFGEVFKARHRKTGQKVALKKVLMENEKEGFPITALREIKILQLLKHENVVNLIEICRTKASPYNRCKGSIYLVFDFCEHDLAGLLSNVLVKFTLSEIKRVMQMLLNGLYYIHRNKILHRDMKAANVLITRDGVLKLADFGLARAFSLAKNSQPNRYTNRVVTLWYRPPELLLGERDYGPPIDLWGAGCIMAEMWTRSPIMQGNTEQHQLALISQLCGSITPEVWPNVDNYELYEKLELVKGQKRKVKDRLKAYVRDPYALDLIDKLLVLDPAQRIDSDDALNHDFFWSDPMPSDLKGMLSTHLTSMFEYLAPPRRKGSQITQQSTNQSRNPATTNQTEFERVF
# CDK9 (cyclin K), sequence (O75909 whole entry partner): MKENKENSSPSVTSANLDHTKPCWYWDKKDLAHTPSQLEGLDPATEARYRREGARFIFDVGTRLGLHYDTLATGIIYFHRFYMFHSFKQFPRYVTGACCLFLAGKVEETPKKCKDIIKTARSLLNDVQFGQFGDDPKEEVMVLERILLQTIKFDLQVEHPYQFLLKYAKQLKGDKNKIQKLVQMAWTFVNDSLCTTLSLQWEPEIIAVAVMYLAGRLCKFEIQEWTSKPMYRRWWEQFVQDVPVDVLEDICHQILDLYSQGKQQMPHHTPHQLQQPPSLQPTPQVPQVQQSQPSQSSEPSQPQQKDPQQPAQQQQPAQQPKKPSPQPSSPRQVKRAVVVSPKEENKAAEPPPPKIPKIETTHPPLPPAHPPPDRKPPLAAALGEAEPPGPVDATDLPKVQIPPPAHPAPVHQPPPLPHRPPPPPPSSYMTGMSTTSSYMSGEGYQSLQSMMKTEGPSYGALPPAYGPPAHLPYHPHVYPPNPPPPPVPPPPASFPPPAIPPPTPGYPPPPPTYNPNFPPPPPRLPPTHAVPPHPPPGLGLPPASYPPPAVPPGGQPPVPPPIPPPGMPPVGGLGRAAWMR
# A549 = assay: Cancer cell proliferation assay, single agent; type: cell-based; conditions: Homo sapiens; A549 cells; treated for 24-168 hours; read-out: IC50 (nM) A549
# CDK4 = CDK4 (Homo sapiens (Human), UniProt P11802); assay: In vitro kinase inhibition, luminescence (ADP-Glo) with retinoblastoma substrate; type: biochemical
# CDK4, sequence (P11802 whole entry): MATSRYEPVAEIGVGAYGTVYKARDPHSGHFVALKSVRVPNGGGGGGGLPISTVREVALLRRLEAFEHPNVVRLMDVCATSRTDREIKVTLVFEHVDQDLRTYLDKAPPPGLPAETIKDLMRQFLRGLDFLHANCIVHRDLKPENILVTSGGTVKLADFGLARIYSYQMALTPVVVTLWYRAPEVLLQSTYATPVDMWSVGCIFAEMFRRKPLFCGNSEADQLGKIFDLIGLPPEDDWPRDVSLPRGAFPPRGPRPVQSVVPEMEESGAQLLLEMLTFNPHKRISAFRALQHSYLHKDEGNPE
# CDK4, sequence (P24385 whole entry partner): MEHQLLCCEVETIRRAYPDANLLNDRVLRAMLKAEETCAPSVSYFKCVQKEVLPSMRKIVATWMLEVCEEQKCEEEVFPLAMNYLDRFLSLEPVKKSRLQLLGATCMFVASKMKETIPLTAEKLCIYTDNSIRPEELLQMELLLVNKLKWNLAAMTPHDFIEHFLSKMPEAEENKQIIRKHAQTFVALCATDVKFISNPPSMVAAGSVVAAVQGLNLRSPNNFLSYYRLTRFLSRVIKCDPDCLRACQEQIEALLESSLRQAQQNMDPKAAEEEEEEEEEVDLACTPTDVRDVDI
# CDK7 (cyclin H) = CDK7 (cyclin H) (Homo sapiens (Human), UniProt P50613); assay: Adapta Assay; type: biochemical
# Text: The following equations were used for Adapta™ Assay Data Analysis.
# CDK5 (p25) = CDK5 (p25) (Homo sapiens (Human), UniProt Q00535); assay: Z'-LYTE kinase assay; type: biochemical
# Text: The following equations were used for Z'-LYTETM Screening Assay Data Analysis.
# FMS kinase = FMS kinase (Homo sapiens (Human), UniProt P07333); assay: LanthaScreen kinase assay (ATP, fluorescent-PolyGT substrate, TR-FRET); type: biochemical
# FMS kinase, sequence (P07333 20-972): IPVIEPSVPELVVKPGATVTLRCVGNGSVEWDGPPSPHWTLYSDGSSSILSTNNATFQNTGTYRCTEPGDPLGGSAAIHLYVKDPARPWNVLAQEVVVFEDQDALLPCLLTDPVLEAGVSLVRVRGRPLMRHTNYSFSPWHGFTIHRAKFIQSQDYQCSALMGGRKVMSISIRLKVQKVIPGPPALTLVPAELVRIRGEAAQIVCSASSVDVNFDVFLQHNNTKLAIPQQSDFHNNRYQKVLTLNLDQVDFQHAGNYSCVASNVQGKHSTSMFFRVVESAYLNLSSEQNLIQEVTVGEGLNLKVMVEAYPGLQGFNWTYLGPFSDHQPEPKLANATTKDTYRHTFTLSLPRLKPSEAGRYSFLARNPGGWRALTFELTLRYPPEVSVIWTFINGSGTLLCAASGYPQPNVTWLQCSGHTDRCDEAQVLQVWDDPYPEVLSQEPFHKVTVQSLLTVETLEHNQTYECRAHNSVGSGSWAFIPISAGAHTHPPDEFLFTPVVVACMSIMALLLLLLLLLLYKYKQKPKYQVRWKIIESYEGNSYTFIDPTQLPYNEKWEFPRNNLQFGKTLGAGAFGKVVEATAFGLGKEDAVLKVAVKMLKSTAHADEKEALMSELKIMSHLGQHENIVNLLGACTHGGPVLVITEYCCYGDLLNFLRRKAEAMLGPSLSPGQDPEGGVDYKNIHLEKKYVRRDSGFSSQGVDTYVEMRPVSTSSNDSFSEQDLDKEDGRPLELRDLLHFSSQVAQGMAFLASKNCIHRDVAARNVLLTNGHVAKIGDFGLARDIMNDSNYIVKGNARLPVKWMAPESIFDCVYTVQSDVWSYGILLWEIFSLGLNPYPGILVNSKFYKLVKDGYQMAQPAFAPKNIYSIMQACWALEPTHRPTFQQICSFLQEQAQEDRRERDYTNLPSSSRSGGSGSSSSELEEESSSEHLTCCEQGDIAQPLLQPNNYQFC
# MCF-7 = assay: Cancer cell proliferation assay, single agent; type: cell-based; conditions: Homo sapiens
# PI3Kδ kinase = PI3Kδ kinase (Homo sapiens (Human), UniProt O00329); assay: PI3Kδ kinase ADP-Glo assay (Reaction Biology Corporation); conditions: read-out: PI3Kδ IC50
# PI3Kδ kinase, sequence (O00329 whole entry): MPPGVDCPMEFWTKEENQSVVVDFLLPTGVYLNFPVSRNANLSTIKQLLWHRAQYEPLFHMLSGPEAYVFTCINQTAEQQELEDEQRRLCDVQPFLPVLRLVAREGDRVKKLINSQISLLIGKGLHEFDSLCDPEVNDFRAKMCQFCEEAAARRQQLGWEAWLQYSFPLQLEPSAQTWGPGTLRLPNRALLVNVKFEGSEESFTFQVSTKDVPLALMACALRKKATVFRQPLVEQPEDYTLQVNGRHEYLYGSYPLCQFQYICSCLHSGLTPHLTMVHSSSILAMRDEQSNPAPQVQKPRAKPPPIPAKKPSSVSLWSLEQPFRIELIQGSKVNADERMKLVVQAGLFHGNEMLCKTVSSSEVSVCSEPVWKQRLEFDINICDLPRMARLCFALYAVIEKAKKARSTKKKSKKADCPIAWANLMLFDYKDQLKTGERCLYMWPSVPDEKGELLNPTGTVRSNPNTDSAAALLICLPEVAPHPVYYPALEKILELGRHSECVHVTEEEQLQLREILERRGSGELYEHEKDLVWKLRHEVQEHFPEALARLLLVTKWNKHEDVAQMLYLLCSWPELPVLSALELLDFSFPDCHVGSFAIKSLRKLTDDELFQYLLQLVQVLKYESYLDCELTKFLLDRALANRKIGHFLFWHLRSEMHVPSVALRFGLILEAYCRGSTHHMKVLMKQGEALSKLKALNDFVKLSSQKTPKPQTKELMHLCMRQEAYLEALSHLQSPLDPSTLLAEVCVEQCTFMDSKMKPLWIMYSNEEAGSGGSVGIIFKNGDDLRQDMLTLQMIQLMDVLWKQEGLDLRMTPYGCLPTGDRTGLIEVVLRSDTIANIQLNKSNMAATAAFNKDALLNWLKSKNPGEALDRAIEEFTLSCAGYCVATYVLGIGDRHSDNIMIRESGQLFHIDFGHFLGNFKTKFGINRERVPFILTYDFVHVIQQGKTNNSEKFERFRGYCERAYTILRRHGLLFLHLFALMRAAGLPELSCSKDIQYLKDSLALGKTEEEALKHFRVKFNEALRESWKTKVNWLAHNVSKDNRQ
# PI3Kδ kinase, sequence (P27986 whole entry partner): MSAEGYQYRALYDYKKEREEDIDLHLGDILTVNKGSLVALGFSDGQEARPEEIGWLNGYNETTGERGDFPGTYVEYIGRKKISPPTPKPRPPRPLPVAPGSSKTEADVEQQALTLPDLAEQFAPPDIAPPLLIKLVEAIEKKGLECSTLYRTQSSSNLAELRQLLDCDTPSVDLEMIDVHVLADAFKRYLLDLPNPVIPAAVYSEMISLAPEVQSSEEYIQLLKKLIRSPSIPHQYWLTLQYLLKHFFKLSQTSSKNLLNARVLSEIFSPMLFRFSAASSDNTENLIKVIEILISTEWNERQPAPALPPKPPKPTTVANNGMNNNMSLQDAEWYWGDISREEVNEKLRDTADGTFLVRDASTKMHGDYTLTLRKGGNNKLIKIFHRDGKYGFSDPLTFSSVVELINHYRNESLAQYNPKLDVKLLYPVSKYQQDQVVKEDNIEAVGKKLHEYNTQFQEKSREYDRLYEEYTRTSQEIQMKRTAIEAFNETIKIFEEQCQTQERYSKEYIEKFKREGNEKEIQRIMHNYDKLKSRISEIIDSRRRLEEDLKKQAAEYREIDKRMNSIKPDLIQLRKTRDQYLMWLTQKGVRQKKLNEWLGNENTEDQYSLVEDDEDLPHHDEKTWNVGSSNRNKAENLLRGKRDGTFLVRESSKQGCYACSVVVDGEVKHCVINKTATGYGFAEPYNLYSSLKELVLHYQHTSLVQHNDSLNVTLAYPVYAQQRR
# [1] = DU-4475, DU4475 cells, treated for 24-168 hours, read-out: IC50 (nM) DU4475
# [2] = MCF7, MCF-7 cells, treated for 24-168 hours, read-out: IC50 (nM) MCF-7
# [3] = DU-4475, read-out: IC50 (nM) DU4475
# [4] = MCF7, read-out: IC50 (nM) MCF-7
IC50 (CDK2 (cyclin A)) [µM],IC50 (DU4475; [1]) [nM],IC50 (CDK1 (cyclin B)) [µM],IC50 (CDK6) [µM],IC50 (CDK9 (cyclin K)) [µM],IC50 (CDK4) [µM],IC50 (CDK7 (cyclin H)) [µM],IC50 (MCF-7; [2]) [nM],Compound,IC50 (A549) [nM],IC50 (CDK5 (p25)) [µM],IC50 (FMS kinase) [µM],IC50 (PI3Kδ kinase) [µM],IC50 (DU4475; [3]) [nM],IC50 (MCF-7; [4]) [nM]
0.007,503,0.073,0.001,0.041,0.002,1.16,125,"CC(C)N1CCOc2c(F)cc(-c3nc(Nc4ccc(C5CCN(C)CC5)cn4)ncc3F)cc21 [Compound 442, 5-fluoro-4-(8-fluoro-4-isopropyl-3,4-dihydro-2H-benzo[b][1,4]oxazin-6-yl)-N-(5-(1-methylpiperidin-4-yl)pyridin-2-yl)pyrimidin-2-amine]",465,0.027,0.353,> 50,–,–
0.036,230,0.238,0.0016,0.243,0.0011,> 10,300,"CC(C)N1CCOc2c(F)cc(-c3nc(Nc4ccc(N5CCC(O)CC5)cn4)ncc3F)cc21 [Compound 447, 1-(6-((5-fluoro-4-(8-fluoro-4-isopropyl-3,4-dihydro-2H-benzo[b][1,4]oxazin-6-yl)pyrimidin-2-yl)amino)pyridin-3-yl)piperidin-4-ol]",–,–,1.68,> 50,–,–
< 0.001,–,< 0.001,0.0035,–,0.004,–,< 4,"CC(C)N1CCOc2c(F)cc(-c3nc(Nc4ccc5c(c4)CCN(C(=O)CN(C)C)C5)ncc3F)cc21 [Compound 456, 2-(dimethylamino)-1-(6-((5-fluoro-4-(8-fluoro-4-isopropyl-3,4-dihydro-2H-benzo[b][1,4]oxazin-6-yl)pyrimidin-2-yl)amino)-3,4-dihydroisoquinolin-2(1H)-yl)ethan-1-one]",–,–,0.004,19.5,–,–
–,45,0.003,–,–,–,0.163,20,"CC(C)N1CCOc2c(F)cc(-c3nc(Nc4ccc(N5CCC(N(C)C)CC5)nc4)ncc3F)cc21 [Compound 38, N-(6-(4-(dimethylamino)piperidin-1-yl)pyridin-3-yl)-5-fluoro-4-(8-fluoro-4-isopropyl-3,4-dihydro-2H-benzo[b][1,4]oxazin-6-yl)pyrimidin-2-amine]",–,–,0.04,–,–,–
0.068,385,0.679,0.0088,0.28,0.0039,> 10,850,"CC(C)N1CCOc2c(F)cc(-c3nc(Nc4ccc(N5CCOCC5)cn4)ncc3F)cc21 [Compound 446, 5-fluoro-4-(8-fluoro-4-isopropyl-3,4-dihydro-2H-benzo[b][1,4]oxazin-6-yl)-N-(5-morpholinopyridin-2-yl)pyrimidin-2-amine]",–,–,1.11,21.8,–,–
0.033,1480,0.078,0.01,–,0.005,–,1090,"Fc1cnc(Nc2ccc3c(n2)CCNC3)nc1-c1cc(F)c2c(c1)N(C1CCCC1)CCO2 [Compound 509, N-(4-(4-cyclopentyl-8-fluoro-3,4-dihydro-2H-benzo[b][1,4]oxazin-6-yl)-5-fluoropyrimidin-2-yl)-5,6,7,8-tetrahydro-1,6-naphthyridin-2-amine]",–,–,–,–,–,–
0.003,50,< 0.001,0.008,–,0.002,–,17,"CC(C)N1CCOc2c(F)cc(-c3nc(Nc4ccc(S(=O)(=O)NCCN(C)C)cc4)ncc3F)cc21 [Compound 513, N-(2-(dimethylamino)ethyl)-4-((5-fluoro-4-(8-fluoro-4-isopropyl-3,4-dihydro-2H-benzo[b][1,4]oxazin-6-yl)pyrimidin-2-yl)amino)benzenesulfonamide]",–,–,–,–,–,–
0.074,75,0.021,0.051,–,0.02,–,55,"COCCNS(=O)(=O)c1ccc(Nc2ncc(F)c(-c3cc(F)c4c(c3)N(C(C)C)CCO4)n2)cc1 [Compound 523, 4-(5-fluoro-4-(8-fluoro-4-isopropyl-3,4-dihydro-2H-benzo[b][1,4]oxazin-6-yl)pyrimidin-2-ylamino)-N-(2-methoxyethyl)benzenesulfonamide]",–,–,–,–,–,–
0.024,345,0.069,–,–,–,–,85,"CC(C)N1CCOc2c(F)cc(-c3nc(Nc4ccc5c(n4)CCNC5)ncc3F)cc21 [Compound 481, N-(5-fluoro-4-(8-fluoro-4-isopropyl-3,4-dihydro-2H-benzo[b][1,4]oxazin-6-yl)pyrimidin-2-yl)-5,6,7,8-tetrahydro-1,6-naphthyridin-2-amine]",–,–,0.426,> 20,–,–
0.003,–,0.009,–,–,–,0.085,45,"CC(C)N1CCOc2c(F)cc(-c3nc(Nc4ccn(C5CCNCC5)c(=O)c4)ncc3F)cc21 [Compound 437, 4-((5-fluoro-4-(8-fluoro-4-isopropyl-3,4-dihydro-2H-benzo[b][1,4]oxazin-6-yl)pyrimidin-2-yl)amino)-1-(piperidin-4-yl)pyridin-2(1H)-one]",–,0.0077,0.003,–,–,–

Compound,IC50 (CDK2 (cyclin A)) [µM],IC50 (DU4475; [1]) [nM],IC50 (CDK1 (cyclin B)) [µM],IC50 (CDK6) [µM],IC50 (CDK9 (cyclin K)) [µM],IC50 (CDK4) [µM],IC50 (CDK7 (cyclin H)) [µM],IC50 (MCF-7; [2]) [nM],IC50 (A549) [nM],IC50 (CDK5 (p25)) [µM],IC50 (FMS kinase) [µM],IC50 (PI3Kδ kinase) [µM],IC50 (DU4475; [3]) [nM],IC50 (MCF-7; [4]) [nM]
"CC(C)N1CCOc2c(F)cc(-c3nc(Nc4ccc(C5CCN(C)CC5)nc4)ncc3F)cc21 [Compound 33, 5-fluoro-4-(8-fluoro-4-isopropyl-3,4-dihydro-2H-benzo[b][1,4]oxazin-6-yl)-N-(6-(1-methylpiperidin-4-yl)pyridin-3-yl)pyrimidin-2-amine]",0.002,–,0.003,0.0015,0.002,0.0015,0.054,< 14,–,0.001,0.048,–,40,–
"Fc1cnc(Nc2ccc3c(n2)CCNC3)nc1-c1cc(F)c2c(c1)N(C1CCC1)CCO2 [Compound 482, N-(4-(4-cyclobutyl-8-fluoro-3,4-dihydro-2H-benzo[b][1,4]oxazin-6-yl)-5-fluoropyrimidin-2-yl)-5,6,7,8-tetrahydro-1,6-naphthyridin-2-amine]",0.029,–,0.155,0.016,–,0.003,–,–,–,–,1.75,> 50,540,230
"CC(C)CN1CCOc2c(F)cc(-c3nc(Nc4ccc5c(n4)CCNC5)ncc3F)cc21 [Compound 483, N-(5-fluoro-4-(8-fluoro-4-isobutyl-3,4-dihydro-2H-benzo[b][1,4]oxazin-6-yl)pyrimidin-2-yl)-5,6,7,8-tetrahydro-1,6-naphthyridin-2-amine]",0.044,–,0.181,0.02,–,0.025,–,–,–,–,> 5,> 50,665,460
"CC(C)N1CCOc2c(F)cc(-c3nc(Nc4ccc(N5CCCNCC5)cn4)ncc3F)cc21 [Compound 477, N-(5-(1,4-diazepan-1-yl)pyridin-2-yl)-5-fluoro-4-(8-fluoro-4-isopropyl-3,4-dihydro-2H-benzo[b][1,4]oxazin-6-yl)pyrimidin-2-amine]",0.025,–,0.158,–,–,–,–,–,–,–,0.752,> 50,1100,280
"Fc1cnc(Nc2ccc(N3CCCNCC3)cn2)nc1-c1cc(F)c2c(c1)N(C1CCCC1)CCO2 [Compound 478, N-(5-(1,4-diazepan-1-yl)pyridin-2-yl)-4-(4-cyclopentyl-8-fluoro-3,4-dihydro-2H-benzo[b][1,4]oxazin-6-yl)-5-fluoropyrimidin-2-amine]",0.097,–,0.453,0.027,–,0.009,–,–,–,–,2.21,33.7,1680,665
"CC(C)N1CCOc2c(F)cc(-c3nc(Nc4ccc(N5CCC(N(C)C)CC5)cn4)ncc3F)cc21 [Compound 436, N-(5-(4-(dimethylamino)piperidin-1-yl)pyridin-2-yl)-5-fluoro-4-(8-fluoro-4-isopropyl-3,4-dihydro-2H-benzo[b][1,4]oxazin-6-yl)pyrimidin-2-amine]",0.008,383,0.082,–,0.073,–,2.36,165,390,0.038,> 5,–,–,–
"CCN1CCN(Cc2ccc(Nc3ncc(F)c(-c4cc(F)c5c(c4)N(C(C)C)CCO5)n3)nc2)CC1 [Compound 4, N-(5-((4-ethylpiperazin-1-yl)methyl)pyridin-2-yl)-5-fluoro-4-(8-fluoro-4-isopropyl-3,4-dihydro-2H-benzo[b][1,4]oxazin-6-yl)pyrimidin-2-amine]",0.012,–,0.13,–,–,–,–,–,–,–,0.566,> 5,–,110
